Like-named read-outs stand apart in the source and are kept apart here.
Key:
Type in all cases: cell-based
SARS-CoV-2 Wuhan variant [1] = assay: microbe, parasite or virus in culture
[2] = tested on: SARS-CoV-2 Omicron variant
SARS-CoV-2 Wuhan variant [3] = tested on: SARS-CoV-2 Wuhan variant
SARS-CoV-2 D614G variant = tested on: SARS-CoV-2 D614G variant
SARS-CoV-2 Alpha variant = assay: microbe, parasite or virus in culture
SARS-CoV-2 Delta variant = assay: microbe, parasite or virus in culture
[4] = Severe acute respiratory syndrome coronavirus 2, Calu-3

Compound | IC50 (SARS-CoV-2 Wuhan variant [1]; read-out: IC50) | antiviral activity after a single replication cycle (viral titre, in words) [2] | antiviral activity after a single replication cycle (viral titre, in words) (SARS-CoV-2 Wuhan variant [3]) | IC50 (SARS-CoV-2 D614G variant) | SI (selectivity index) (SARS-CoV-2 Alpha variant) | IC50 (SARS-CoV-2 Alpha variant; [4]) | SI (selectivity index) (SARS-CoV-2 Wuhan variant [1]) | IC50 (SARS-CoV-2 Wuhan variant [1]; [4]) | SI (selectivity index) (SARS-CoV-2 Delta variant) | IC50 (SARS-CoV-2 Delta variant; [4]) | IC50 (SARS-CoV-2 Alpha variant; read-out: IC50) | IC50 (SARS-CoV-2 Delta variant; read-out: IC50)
N-acetyl cysteine [NAC] | 549 µM | effective against the Omicron variant | strong antiviral activity |  |  |  |  |  |  |  |  | 
O=C(O)c1cc(/N=N/c2ccc(S(=O)(=O)Nc3ccccn3)cc2)ccc1O [Sulfasalazine] |  |  |  | 20.1 ± 2.07 µM | > 23.87 | 20.9 ± 4.23 µM | > 20.51 | 24.4 ± 5.37 µM | > 20.82 | 24 ± 3.2 µM |  | 
COc1cc(Nc2ncc(F)c(Nc3ccc4c(n3)NC(=O)C(C)(C)O4)n2)cc(OC)c1OC [Tamatinib] |  |  |  | 0.115 ± 0.00677 µM | 69.20 | 0.08295 ± 0.00068 µM |  | 0.103 ± 0.0027 µM | 57.84 | 0.0992 ± 0.0014 µM |  | 
MKI-1 | 0.0465 ± 0.0018 µM |  |  | 0.0464 ± 0.00082 µM |  |  |  |  |  |  | 0.0317 ± 0.00418 µM | 0.0484 ± 0.00207 µM
N[C@@H](CCC(=O)N[C@@H](CS)C(=O)NCC(=O)O)C(=O)O [GSH, glutathione] |  | effective against the Omicron variant | strong antiviral activity |  |  |  |  |  |  |  |  | 
COc1cc2c(Nc3ccc(Br)cc3F)ncnc2cc1OCC1CCN(C)CC1 [Vandetanib] |  |  |  | 0.0334 ± 0.00272 µM | 123.55 | 0.0304 ± 0.00154 µM | 96.46 | 0.0389 ± 0.0024 µM | 72.91 | 0.0515 ± 0.00555 µM |  | 
imidazole ketone erastin [IKE] | 0.099 ± 0.00812 µM | effective against the Omicron variant | strong antiviral activity | 0.0885 ± 0.105 µM |  |  |  |  |  |  | 0.0799 ± 0.00411 µM | 0.113 ± 0.00371 µM

— publication PMC11411213 (Journal of Molecular Cell Biology, 2024)
